Patent US20090036422A1 (priority 2007, published 2009)
Structures can show the parent of a compound that is named as a salt.

test system: rat; experiment: not given; conditions: intracerebroventricular (icv) administration; cited from earlier work

Row | Molecule | reduction of total REM sleep [%]
1 | OX-A: "orexin-A/hypocretin1 (OX-A, 33 amino acids)", hypothalamic neuropeptide; "Orexin A ... was used as agonist" (QPLPDCCRQKTCSCRLYELLHGAGNHAAGILTL; Orexin-A; UniProt O43612 34-66, looked up) | 84

target: T1, human orexin-2 (hOX2) receptor (Homo sapiens, UniProt O43614); experiment: Intracellular Ca2+ mobilization assay (FLIPR), CHO(dHFr-) cells expressing hOX2, orexin-A at EC80 as agonist; format: cell-based; conditions: Kb=IC50/(1+[A]/EC50); CHO(dHFr-)-OX2R cells, antagonist applied 25 min before orexin-A EC80
T1 construct: expressed in transfected cells
T1 sequence (O43614 1-444): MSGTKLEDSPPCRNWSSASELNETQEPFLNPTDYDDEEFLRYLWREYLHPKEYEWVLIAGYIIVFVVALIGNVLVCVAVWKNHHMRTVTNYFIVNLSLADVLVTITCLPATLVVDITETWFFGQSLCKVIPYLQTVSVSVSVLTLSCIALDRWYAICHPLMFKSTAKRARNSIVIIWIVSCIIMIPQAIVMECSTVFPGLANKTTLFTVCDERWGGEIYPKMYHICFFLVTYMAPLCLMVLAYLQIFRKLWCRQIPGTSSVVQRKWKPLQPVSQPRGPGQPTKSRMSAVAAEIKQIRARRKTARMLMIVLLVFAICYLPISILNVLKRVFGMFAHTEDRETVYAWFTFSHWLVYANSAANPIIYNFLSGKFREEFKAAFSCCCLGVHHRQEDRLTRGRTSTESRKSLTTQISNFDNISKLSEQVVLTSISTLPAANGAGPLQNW
How it was run: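 Fluo-4-loaded CHO(dHFr−) cells stably expressing hOX2 were preincubated 25 min at 37 °C with antagonist (11 concentrations, 0.0001–10 μM), then challenged with orexin-A at its daily-determined EC80. Peak fluorescence over basal read by FLIPR; IC50 from Hill fit, Kb via Kb=IC50/(1+[A]/EC50).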

Row | Molecule | Kb [µM]
2 | N[C@H](C(=O)N(CCc1ccc(F)cc1)c1ccc2c(c1)OCC2)c1ccccc1 [Example 243, (S)-2-Amino-N-(2,3-dihydro-benzofuran-6-yl)-N-[2-(4-fluoro-phenyl)-ethyl]-2-phenyl-acetamide hydrochloride] | 0.0604
3 | CCc1ccc(N(CCc2ccc(F)cc2)C(=O)[C@@H](N)c2ccccc2)cc1 [Example 244, (S)-2-Amino-N-(4-ethyl-phenyl)-N-[2-(4-fluoro-phenyl)-ethyl]-2-phenyl-acetamide hydrochloride] | 0.049

Other lines, results leading:

Row | Kb [µM] | Molecule
4 | 0.025 | N[C@H](C(=O)N(CCc1ccc(F)cc1)c1ccc2c(c1)CCO2)c1ccccc1 [Example 239, (S)-2-Amino-N-(2,3-dihydro-benzofuran-5-yl)-N-[2-(4-fluoro-phenyl)-ethyl]-2-phenyl-acetamide hydrochloride]
5 | 0.0353 | Cc1ccc(CCN(C(=O)[C@@H](NC(=O)CN)c2ccccc2)c2ccc(C)c(C)c2)cc1 [Example 248, (S)-2-(2-Amino-acetylamino)-N-(3,4-dimethyl-phenyl)-2-phenyl-N-(2-p-tolyl-ethyl)-acetamide]
6 | 0.082 | Cc1ccc(CCN(C(=O)[C@@H](NC(=O)[C@@H](N)c2ccccc2)c2ccccc2)c2ccc(C)c(C)c2)cc1 [Example 249, (S)-2-((S)-2-Amino-2-phenyl-acetylamino)-N-(3,4-dimethyl-phenyl)-2-phenyl-N-(2-p-tolyl-ethyl)-acetamide]
7 | 0.0102 | Cc1ccc(CCN(C(=O)[C@@H](NC(=O)[C@H](C)N)c2ccccc2)c2ccc(C)c(C)c2)cc1 [Example 251, (S)-2-Amino-N-{(S)-[(3,4-dimethyl-phenyl)-(2-p-tolyl-ethyl)-carbamoyl]-phenyl-methyl}-propionamide]
